A short description of data set [1]: Stability of antibiotic drug activity in 0.5% (agarose) hydrogel over time. It counts as physicochemical. The settings on record: antibiotic in 0.5% (agarose) hydrogel, compare with original concentration. The text has this:
According to Table 1, gel-therapeutic agent preparations comprising an antibiotic and a 0.5% (agarose) hydrogel may be stable for up to one week. Drugs dissolve passively into the gel and stay stable over time. In some embodiments, the gel-therapeutic agent preparation may further comprise saline. The gel may be biocompatible, meaning that it is structurally similar to the extracellular matrix in tissues. The gel may be flowable, allowing either for, for example, casting into a mold or injection via needle through a port. The loading of the […] agent preparation in the device may allow consistent and uniform contact with the skin even with patient movement, maintaining continuous delivery of the therapeutic agent to the underlying tissue. The gel-therapeutic agent preparation may prevent loss of the therapeutic agent in the event of a minor leak in the adhesive of the device.

For data set [2], the system named is common bacteria. The settings on record: typical value for common bacteria; cited from earlier work.

Consider Gentamicin, for which the “Drug activity, 3 days” value in data set [1] (3 days) amounted to 2.41 µg/mL. Besides, the “Drug activity, 7 days” value in data set [1] (7 days) came to 2.04 µg/mL. For the same compound, the MIC entry in data set [2] was “around 2 micrograms per ml”.

With `CN[C@H](CC(C)C)C(=O)N[C@H]1C(=O)N[C@@H](CC(N)=O)C(=O)N[C@H]2C(=O)N[C@H]3C(=O)N[C@H](C(=O)N[C@H](C(=O)O)c4cc(O)cc(O)c4-c4cc3ccc4O)[C@H](O)c3ccc(c(Cl)c3)Oc3cc2cc(c3O[C@@H]2O[C@H](CO)[C@@H](O)[C@H](O)[C@H]2O[C@H]2C[C@](C)(N)[C@H](O)[C@H](C)O2)Oc2ccc(cc2Cl)[C@H]1O` [Vancomicin], the MIC result in data set [2] was “around 2 micrograms per ml”.

The record behind these values is patent US20250387270A1, “DEVICES AND METHODS FOR WOUND TREATMENT” (APPLIED TISSUE TECHNOLOGIES LLC, priority 2016, published 2025).
